Measured values: ChEMBL document CHEMBL5608259 (J Med Chem, 2024)
The source made the active and inactive calls. The rule behind the calls is not given here.

Key:
[1] = target: Protein arginine N-methyltransferase 1 (Homo sapiens, UniProt Q99873); experiment: Inhibition of human PRMT1 using H4-21peptide as substrate at 10 uM incubated for 10 mins by fluorescence based analysis relative to control
[2] = target: Protein arginine N-methyltransferase 6 (Homo sapiens, UniProt Q96LA8); experiment: Inhibition of human PRMT6 using GST-GAR as substrate and SAM as cofactor at 10 uM by radiometric HotSpot assay relative to control
[3] = target: T1, Histone-arginine methyltransferase CARM1 (Homo sapiens) (UniProt Q86X55); experiment: Inhibition of human PRMT4 using histone H3 as substrate and SAM as cofactor at 10 uM by radiometric HotSpot assay relative to control
T1 sequence (whole entry): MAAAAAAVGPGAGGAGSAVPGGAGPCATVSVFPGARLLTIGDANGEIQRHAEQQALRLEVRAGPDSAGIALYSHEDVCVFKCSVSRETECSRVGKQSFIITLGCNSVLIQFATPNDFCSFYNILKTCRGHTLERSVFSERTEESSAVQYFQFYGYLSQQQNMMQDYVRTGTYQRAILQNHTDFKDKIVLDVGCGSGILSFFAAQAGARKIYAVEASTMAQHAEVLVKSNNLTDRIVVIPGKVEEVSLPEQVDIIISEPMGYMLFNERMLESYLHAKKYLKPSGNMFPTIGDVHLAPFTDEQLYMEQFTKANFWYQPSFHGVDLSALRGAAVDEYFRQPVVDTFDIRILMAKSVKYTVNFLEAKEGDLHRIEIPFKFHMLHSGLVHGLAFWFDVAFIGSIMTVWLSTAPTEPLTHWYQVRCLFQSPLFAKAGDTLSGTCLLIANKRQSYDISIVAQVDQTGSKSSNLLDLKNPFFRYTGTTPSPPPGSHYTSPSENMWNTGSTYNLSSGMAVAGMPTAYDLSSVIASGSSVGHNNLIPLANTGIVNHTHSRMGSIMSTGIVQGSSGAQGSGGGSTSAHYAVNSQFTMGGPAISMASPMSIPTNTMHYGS

[4] = target: Protein arginine N-methyltransferase 8 (Homo sapiens, UniProt Q9NR22); experiment: Inhibition of human PRMT8 using Histone H4 as substrate and SAM as cofactor at 10 uM by radiometric HotSpot assay relative to control
[5] = target: Protein arginine N-methyltransferase 3 (Homo sapiens, UniProt O60678); experiment: Inhibition of human PRMT3 using H4-21peptide as substrate at 10 uM incubated for 10 mins by fluorescence based analysis relative to control
Chain of Protein arginine N-methyltransferase 3 (O60678 2-531 limits assumed): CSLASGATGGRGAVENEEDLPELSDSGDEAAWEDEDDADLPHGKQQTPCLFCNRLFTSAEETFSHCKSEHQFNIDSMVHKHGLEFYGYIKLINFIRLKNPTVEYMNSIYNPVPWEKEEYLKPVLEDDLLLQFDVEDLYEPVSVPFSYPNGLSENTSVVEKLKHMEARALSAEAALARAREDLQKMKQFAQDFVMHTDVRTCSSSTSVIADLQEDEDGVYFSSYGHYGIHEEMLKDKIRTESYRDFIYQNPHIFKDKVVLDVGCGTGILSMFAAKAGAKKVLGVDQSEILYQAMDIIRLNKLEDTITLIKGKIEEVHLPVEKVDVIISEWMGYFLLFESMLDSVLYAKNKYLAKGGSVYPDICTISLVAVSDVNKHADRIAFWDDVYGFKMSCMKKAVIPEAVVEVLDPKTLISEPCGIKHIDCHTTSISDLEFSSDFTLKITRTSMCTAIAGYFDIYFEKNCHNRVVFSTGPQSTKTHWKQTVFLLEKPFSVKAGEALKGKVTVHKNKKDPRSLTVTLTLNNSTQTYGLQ

Chain of Protein arginine N-methyltransferase 1 (Q99873 whole entry, looked up): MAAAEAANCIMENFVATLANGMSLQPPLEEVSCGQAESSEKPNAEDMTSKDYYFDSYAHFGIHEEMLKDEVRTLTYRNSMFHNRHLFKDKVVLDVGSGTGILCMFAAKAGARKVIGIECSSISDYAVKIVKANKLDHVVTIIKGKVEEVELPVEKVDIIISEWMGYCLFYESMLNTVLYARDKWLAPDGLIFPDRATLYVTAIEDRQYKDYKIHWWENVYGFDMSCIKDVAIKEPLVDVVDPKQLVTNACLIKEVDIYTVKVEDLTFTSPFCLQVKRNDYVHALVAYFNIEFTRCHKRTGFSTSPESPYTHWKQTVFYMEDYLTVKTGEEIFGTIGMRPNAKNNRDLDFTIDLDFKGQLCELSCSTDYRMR
Chain of Protein arginine N-methyltransferase 6 (Q96LA8 whole entry, looked up): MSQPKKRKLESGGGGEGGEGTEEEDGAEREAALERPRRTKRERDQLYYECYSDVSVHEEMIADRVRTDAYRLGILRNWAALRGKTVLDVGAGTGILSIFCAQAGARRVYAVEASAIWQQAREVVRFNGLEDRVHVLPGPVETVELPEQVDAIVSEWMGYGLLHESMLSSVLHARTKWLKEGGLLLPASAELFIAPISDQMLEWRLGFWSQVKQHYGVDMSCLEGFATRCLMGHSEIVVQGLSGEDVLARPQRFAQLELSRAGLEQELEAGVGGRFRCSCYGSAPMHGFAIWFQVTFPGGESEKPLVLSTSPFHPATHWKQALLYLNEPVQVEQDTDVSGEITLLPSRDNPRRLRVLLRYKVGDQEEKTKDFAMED
Chain of Protein arginine N-methyltransferase 8 (Q9NR22 2-394 limits assumed): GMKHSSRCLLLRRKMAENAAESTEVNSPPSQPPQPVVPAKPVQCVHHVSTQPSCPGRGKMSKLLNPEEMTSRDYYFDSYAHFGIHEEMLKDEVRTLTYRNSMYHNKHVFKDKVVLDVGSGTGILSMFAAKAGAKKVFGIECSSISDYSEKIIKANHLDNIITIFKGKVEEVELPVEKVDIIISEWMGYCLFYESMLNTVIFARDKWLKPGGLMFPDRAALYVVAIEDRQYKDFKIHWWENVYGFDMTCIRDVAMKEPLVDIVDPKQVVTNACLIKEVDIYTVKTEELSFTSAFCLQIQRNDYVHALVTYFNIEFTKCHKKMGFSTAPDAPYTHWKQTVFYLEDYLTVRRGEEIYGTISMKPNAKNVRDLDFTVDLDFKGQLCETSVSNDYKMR

inhibition [1] | inhibition [2] | inhibition [3] | inhibition [4] | inhibition [5] | SMILES
Active | Active | Active | 70% | < 30% | N=C(NCCCSC[C@H]1O[C@@H](n2cnc3c(NCCCc4ccccc4)ncnc32)[C@H](O)[C@@H]1O)NC1CCCCC1
 | 50% | > 90% | > 50% | < 30% | Nc1ncnc2c1ncn2[C@@H]1O[C@H](CSCCCNCc2cccc(-c3cccc(F)c3)c2)[C@@H](O)[C@H]1O
 | 50% | > 90% | > 50% | < 30% | Nc1ncnc2c1ncn2[C@@H]1O[C@H](CSCCNCc2cccc(-c3ccccc3O)c2)[C@@H](O)[C@H]1O
inactive | < 50% |  | < 50% | < 30% | Nc1ncnc2c1ncn2[C@@H]1O[C@H](CSCCOc2ccc(-c3ccc(O)cc3)cc2)[C@@H](O)[C@H]1O
 | 50% | > 90% | > 50% | < 30% | Nc1ncnc2c1ncn2[C@@H]1O[C@H](CSCCNCc2cccc(-c3ccc(Cl)cc3)c2)[C@@H](O)[C@H]1O
 | 50% | > 90% | > 50% | < 30% | Nc1ncnc2c1ncn2[C@@H]1O[C@H](CSCCCNCc2cccc(-c3cccc4cn[nH]c34)c2)[C@@H](O)[C@H]1O
 | 50% | > 90% | > 50% | < 30% | Nc1ncnc2c1ncn2[C@@H]1O[C@H](CSCCNCc2cccc(-c3cccc(O)c3)c2)[C@@H](O)[C@H]1O
inactive | > 70% |  | < 50% | < 30% | COc1cc2nc(-c3ccc(Cl)cc3)nc(NCCSC[C@H]3O[C@@H](n4cnc5c(N)ncnc54)[C@H](O)[C@@H]3O)c2cc1OC
 | 50% | > 90% | > 50% | < 30% | Nc1ncnc2c1ncn2[C@@H]1O[C@H](CSCCCNCc2cccc(-c3ccc(C(F)(F)F)cc3)c2)[C@@H](O)[C@H]1O
 | 50% | > 90% | > 50% | < 30% | Nc1ncnc2c1ncn2[C@@H]1O[C@H](CSCCNCc2cccc(-c3ccc(F)c(O)c3)c2)[C@@H](O)[C@H]1O
inactive | < 50% |  | < 50% | < 30% | Nc1ncnc2c1ncn2[C@@H]1O[C@H](CSCCOc2ccc(-c3ccc(F)c(O)c3)cc2)[C@@H](O)[C@H]1O
 | 50% | > 90% | > 50% | < 30% | Nc1cccc(-c2cccc(CNCCSC[C@H]3O[C@@H](n4cnc5c(N)ncnc54)[C@H](O)[C@@H]3O)c2)c1
 | 50% | > 90% | > 50% | < 30% | Nc1ncnc2c1ncn2[C@@H]1O[C@H](CSCCNCc2cccc(-c3cccc4cn[nH]c34)c2)[C@@H](O)[C@H]1O
> 50% | > 90% | > 90% | > 95% |  | N=C(NCCCSC[C@H]1O[C@@H](n2cnc3c(N)ncnc32)[C@H](O)[C@@H]1O)Nc1cccc(-c2cccnc2)c1
inactive | < 50% |  | < 50% | < 30% | Nc1ncnc2c1ncn2[C@@H]1O[C@H](CSCCOc2ccc(-c3cncnc3)cc2)[C@@H](O)[C@H]1O
 | 50% | > 90% | > 50% | < 30% | Nc1ncnc2c1ncn2[C@@H]1O[C@H](CSCCNCc2cccc(-c3ccncc3)c2)[C@@H](O)[C@H]1O
> 50% | > 90% | > 90% | > 95% |  | N=C(NCCCSC[C@H]1O[C@@H](n2cnc3c(N)ncnc32)[C@H](O)[C@@H]1O)Nc1cccc(-c2ccc(F)cc2F)c1
> 50% | > 90% | > 90% | > 95% |  | N=C(NCCSC[C@H]1O[C@@H](n2cnc3c(N)ncnc32)[C@H](O)[C@@H]1O)Nc1cccc(-c2ccoc2)c1
 | 50% | > 90% | > 50% | < 30% | Nc1ncnc2c1ncn2[C@@H]1O[C@H](CSCCNCc2cccc(-c3ccc(O)cc3)c2)[C@@H](O)[C@H]1O

inhibition [1] | inhibition [2] | inhibition [3] | inhibition [4] | inhibition [5] | SMILES
 | 50% | > 90% | > 50% | < 30% | Nc1ncnc2c1ncn2[C@@H]1O[C@H](CSCCCNCc2cccc(-c3ccc(Cl)cc3)c2)[C@@H](O)[C@H]1O
 | 50% | > 90% | > 50% | < 30% | Nc1ncnc2c1ncn2[C@@H]1O[C@H](CSCCCNCc2cccc(-c3ccc(F)c(O)c3)c2)[C@@H](O)[C@H]1O
inactive | < 50% |  | < 50% | < 30% | Nc1ncnc2c1ncn2[C@@H]1O[C@H](CSCCOc2ccc(-c3ccc(Cl)cc3)cc2)[C@@H](O)[C@H]1O
 | 50% | > 90% | > 50% | < 30% | Nc1ncnc2c1ncn2[C@@H]1O[C@H](CSCCNCc2cccc(-c3cccc(F)c3)c2)[C@@H](O)[C@H]1O
inactive | > 70% |  | < 50% | < 30% | COc1cc2nc(-c3ccc(O)cc3)nc(NCCSC[C@H]3O[C@@H](n4cnc5c(N)ncnc54)[C@H](O)[C@@H]3O)c2cc1OC
> 50% | > 90% | > 90% | > 95% |  | N=C(NCCSC[C@H]1O[C@@H](n2cnc3c(N)ncnc32)[C@H](O)[C@@H]1O)Nc1cccc(-c2ccc(C(F)(F)F)cc2)c1
> 50% | > 90% | > 90% | > 95% |  | N=C(NCCSC[C@H]1O[C@@H](n2cnc3c(N)ncnc32)[C@H](O)[C@@H]1O)NCc1ccccc1
 | 50% | > 90% | > 50% | < 30% | Nc1ncnc2c1ncn2[C@@H]1O[C@H](CSCCCNCc2cccc(-c3ccc(O)cc3)c2)[C@@H](O)[C@H]1O
 | 50% | > 90% | > 50% | < 30% | Nc1ncnc2c1ncn2[C@@H]1O[C@H](CSCCNCc2cccc(-c3ccc(C(F)(F)F)cc3)c2)[C@@H](O)[C@H]1O
> 50% | > 90% | > 90% | > 95% |  | N=C(NCCCSC[C@H]1O[C@@H](n2cnc3c(N)ncnc32)[C@H](O)[C@@H]1O)Nc1ccccc1
> 50% | > 90% | > 90% | > 95% |  | N=C(NCCCSC[C@H]1O[C@@H](n2cnc3c(N)ncnc32)[C@H](O)[C@@H]1O)NCc1ccccc1
> 50% | > 90% | > 90% | > 95% |  | N=C(NCCCSC[C@H]1O[C@@H](n2cnc3c(N)ncnc32)[C@H](O)[C@@H]1O)Nc1cccc(-c2ccc(F)c(O)c2)c1
inactive | < 50% |  | < 50% | < 30% | Nc1ncnc2c1ncn2[C@@H]1O[C@H](CSCCOc2ccc(-c3ccccc3O)cc2)[C@@H](O)[C@H]1O
> 50% | > 90% | > 90% | > 95% |  | N=C(NCCCSC[C@H]1O[C@@H](n2cnc3c(N)ncnc32)[C@H](O)[C@@H]1O)Nc1cccc(-c2cccc([N+](=O)[O-])c2)c1
inactive | < 50% |  | < 50% | < 30% | Nc1ncnc2c1ncn2[C@@H]1O[C@H](CSCCOc2ccc(-c3ccc(F)cc3)cc2)[C@@H](O)[C@H]1O
inactive | < 50% |  | < 50% | < 30% | Nc1ncnc2c1ncn2[C@@H]1O[C@H](CSCCOc2ccc(-c3cccc(O)c3)cc2)[C@@H](O)[C@H]1O
 | 50% | > 90% | > 50% | < 30% | Nc1ncnc2c1ncn2[C@@H]1O[C@H](CSCCCNCc2cccc(-c3ccoc3)c2)[C@@H](O)[C@H]1O
inactive | < 50% |  | < 50% | < 30% | Nc1ncnc2c1ncn2[C@@H]1O[C@H](CSCCOc2ccc(-c3ccncc3)cc2)[C@@H](O)[C@H]1O

SMILES | inhibition [1] | inhibition [2] | inhibition [3] | inhibition [4] | inhibition [5]
N=C(NCCCSC[C@H]1O[C@@H](n2cnc3c(N)ncnc32)[C@H](O)[C@@H]1O)Nc1cccc(Br)c1 | > 50% | > 90% | > 90% | > 95% | 
